This note sets out measurements from patent US20230124361A1, “SMALL MOLECULE STING ANTAGONISTS” (CURADEV PHARMA PVT. LTD., priority 2020, published 2023).

The target of the assay is T1, STING (Homo sapiens, UniProt Q86WV6, G230A/H232R/R293Q/R71H).
T1 construct: host or cells: THP1-Dual cells (human THP-1 monocyte line with Lucia/SEAP reporters)
T1 sequence (Q86WV6 whole entry R71H/G230A/H232R/R293Q): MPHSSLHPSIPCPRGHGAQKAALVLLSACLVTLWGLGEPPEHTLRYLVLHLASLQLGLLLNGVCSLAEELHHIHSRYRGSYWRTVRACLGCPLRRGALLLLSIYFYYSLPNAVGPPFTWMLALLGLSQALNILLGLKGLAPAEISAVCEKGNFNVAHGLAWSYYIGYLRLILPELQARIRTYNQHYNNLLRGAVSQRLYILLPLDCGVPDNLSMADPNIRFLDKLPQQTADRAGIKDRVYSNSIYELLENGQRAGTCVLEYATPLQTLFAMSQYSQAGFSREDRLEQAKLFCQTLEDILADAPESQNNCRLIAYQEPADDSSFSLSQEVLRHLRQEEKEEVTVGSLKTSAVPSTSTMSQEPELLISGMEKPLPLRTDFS
Kind of assay: Reporter gene expression assay in THP1-Dual cells (IRF pathway Lucia luciferase, 2',3'-cGAMP stimulation). Format: cell-based. The settings on record: 10 min preincubation, 5 μM 2',3'-cGAMP, 20 hr, IRF reporter QUANTI-Luc, read-out: THP-1 (HAQ) Activity. As for the experimental part:
Reporter Gene Expression Assay in THP-1 Cells
THP1-Dual™ cells (Invivogen) were derived from the human THP-1 monocyte cell line by stable integration of two inducible reporter constructs. As a result, THP1-Dual™ cells allow the simultaneous study of the IRF pathway, by assessing the activity of a secreted luciferase (Lucia) and the NF-κB pathway, by monitoring the activity of secreted SEAP. 5×10^4 THP1-Dual™ cells were seeded in 384-well plates in growth medium and preincubated with novel compounds for 10 minutes followed by stimulation with 5 μM 2′,3′-cGAMP. After 20 hr of stimulation the supernatant was removed and the IRF pathway reporter protein was readily measured in the cell culture supernatant using QUANTI-Luc™ (Invivogen), a luciferase detection reagent on a Spectramax i3X luminometer.
In the tables below, IC50 value ranges for exemplary compounds are given. The IC50 ranges are indicated as “A” for values less than or equal to 1 μM, “B” for values greater than 1 μM and less than or equal to 10 μM, and “C” for values greater than 10 μM.
Background: Reporter assays use an easily measured gene product as a stand-in for the process of interest.
Consider `CN1C(=O)CSc2ccc(NC(=O)Nc3ccc(F)cc3)cc21` [Example 193, l-(4-fluorophenyl)-3-(4-methyl-3-oxo-3,4-dihydro-2H-benzo[b][1, 4]thiazin-6-yl)urea], for which the IC50 was > 10 µM.

As to `O=C(Nc1ccc2c(c1)N(Cc1ccccc1)C(CCO)CO2)Nc1ccc2cc[nH]c2c1` (centres unmarked) [Example 80, 1-(4-Benzyl-3-(2-hydroxyethyl)-3-,4-dihydro-2H-benzo[b][1,4]oxazin-6-yl)-3-(1H-indol-6-yl)urea], the IC50 was in the range of 1 to 10 µM.

Consider `O=C(Nc1ccc2c(c1)OCC(=O)N2CC1CCOC1)Nc1ccc2cc[nH]c2c1` (centres unmarked) [Example 150, 1-(1H-indol-6-yl)-3-(3-oxo-4-((tetrahydrofuran-3-yl)methyl)-3,4-dihydro-2H-benzo [b][1, 4]oxazin-7-yl)urea], for which the IC50 fell in the range of 1 to 10 µM.

For the molecule `O=C(Nc1ccc2c(c1)OCC(=O)N2CC1COc2ccccc2O1)Nc1ccc2cc[nH]c2c1` (centres unmarked) [Example 97, 1-(4-((2,3-dihydrobenzo[b][1,4]dioxin-2-yl)methyl)-3-oxo-3,4-dihydro-2H-benzo[b][1,4]oxazin-7-yl)-3-(1H-indol-6-yl)urea], the IC50 is ≤ 1 µM.

On to `O=C(Nc1ccc2c(c1)N(Cc1ccccc1)CC2)Nc1ccc2cc[nH]c2c1` [Example 74, 1-(1-Benzylindolin-6-yl)-3-(1H-indol-6-yl)urea], for which the IC50 fell in the range of 1 to 10 µM.

Consider `N#CCC1Sc2ccc(NC(=O)Nc3ccc4cc[nH]c4c3)cc2N(Cc2ccccc2)C1=O` (centres unmarked) [Example 77], for which the IC50 fell in the range of 1 to 10 µM.

Turning to `COC(=O)C(c1ccccc1)N1CCOc2ccc(NC(=O)Nc3ccc4cc[nH]c4c3)cc21` (centres unmarked) [Example 86], the IC50 was in the range of 1 to 10 µM.

Turning to `O=C(Nc1ccc2c(c1)N(Cc1ccc(OC(F)(F)F)cc1F)CCO2)Nc1ccc2cc[nH]c2c1` [Example 174, 1-(4-(2-fluoro-4-(trifluoro-methoxy)benzyl)-3,4-dihydro-2H-benzo[b][1, 4]oxazin-6-yl)-3-(1H-indol-6-yl)urea], the IC50 was ≤ 1 µM.

As for `O=C(Nc1ccc2c(c1)N(Cc1ccccc1)C(=O)CS2)Nc1cccc2cc[nH]c12` [Example 19, 1-(4-benzyl-3-oxo-3,4-dihydro-2H-benzo[b][1, 4]thiazin-6-yl)-3-(1H-indol-7-yl)urea], the IC50 fell in the range of 1 to 10 µM.

Turning to `O=C1CSc2ccc(-c3ncc(-c4ccccc4)[nH]3)cc2N1Cc1c(F)cccc1Cl` [Example 43, 4-(2-Chloro-6-fluorobenzyl)-6-(t-phenyl-1H-imidazol-2-yl)-2H-benzo[b][1,4]thiazin-3(4H)-one], the IC50 lay within 1 to 10 µM.

With `O=C(Nc1ccc2c(c1)N(CCN1CCCC1)CCS2)Nc1ccc2cc[nH]c2c1` [Example 68, 1-(1H-indol-6-yl)-3-(4-(2-(pyrrolidin-1-yl)ethyl)-3,4-dihydro-2H-benzo[b][1, 4]thiazin-6-yl)urea], the IC50 fell in the range of 1 to 10 µM.

Take `O=C(Nc1ccc2c(c1)OCC(=O)N2Cc1nc2ccccc2s1)Nc1ccc2cc[nH]c2c1` [Example 117, 1-(4-(benzo[d]thiazol-2-ylmethyl)-3-oxo-3,4-dihydro-2H-benzo[b][1,4]oxazin-7-yl)-3-(1H-indol-6-yl)urea]: the IC50 was ≤ 1 µM.

Take `O=C(Nc1ccc2c(c1)N(c1ccccc1)CCO2)Nc1ccc2cc[nH]c2c1` [Example 184, 1-(1H-indol-6-yl)-3-(4-phenyl-3,4-dihydro-2H-benzo[b][1,4]oxazin-6-yl)urea]: the IC50 was 1 to 10 µM.

`O=C(Nc1ccc2c(c1)N(Cc1ccccc1)C(=O)CS2)c1ccc2cc[nH]c2c1` [Example 55, N-(4-benzyl-3-oxo-3,4-dihydro-2H-benzo[b][1,4]thiazin-6-yl)-1H-indole-6-carboxamide]: the IC50 is 1 to 10 µM.

With `O=C(Nc1ccc2c(c1)SCC(=O)N2Cc1c(F)cccc1Cl)Nc1ccc2cc[nH]c2c1` [Example 89, 1-(4-(2-chloro-6-fluorobenzyl)-3-oxo-3,4-dihydro-2H-benzo[b][1, 4]thiazin-7-yl)-3-(1H-indol-6-yl)urea], the IC50 was ≤ 1 µM.

Take `NC(=O)c1cccc(CN2C(=O)COc3cc(NC(=O)Nc4ccc5cc[nH]c5c4)ccc32)c1` [Example 155, 3-((7-(3-(1H-indol-6-yl)ureido)-3-oxo-2,3-dihydro-4H-benzo[b][1, 4]oxazin-4-yl)methyl) benzamide]: the IC50 is > 10 µM.

Regarding `O=C(Nc1ccc2c(c1)OCC(=O)N2Cc1ccc[nH]c1=O)Nc1ccc2cc[nH]c2c1` [Example 158, 1-(1H-indol-6-yl)-3-(3-oxo-4-((2-oxo-1,2-dihydropyridin-3-yl)methyl)-3,4-dihydro-2H-benzo[b][1, 4]oxazin-7-yl)urea], the IC50 was > 10 µM.

In the case of `Cc1cc(CN2C(=O)CSc3ccc(NC(=O)Nc4ccc5cc[nH]c5c4)cc32)ccn1` [Example 60], the IC50 was in the range of 1 to 10 µM.

Take `O=C(Nc1ccc2c(c1)SCC(=O)N2Cc1c(F)cc(O)cc1F)Nc1ccc2cc[nH]c2c1` [Example 127, 1-(4-(2,6-difluoro-4-hydroxybenzyl)-3-oxo-3,4-dihydro-2H-benzo[b][1, 4]thiazin-7-yl)-3-(1H-indol-6-yl)urea]: the IC50 fell in the range of 1 to 10 µM.

For `O=C(Nc1ccc(F)cc1)Nc1ccc2c(c1)N(Cc1ccccc1)CCS2` [Example 173, 1-(4-benzyl-3,4-dihydro-2H-benzo[b][1, 4]thiazin-6-yl)-3-(4-fluorophenyl) urea], the IC50 was in the range of 1 to 10 µM.

For `NC(=O)CC1Sc2ccc(NC(=O)Nc3ccc4cc[nH]c4c3)cc2N(Cc2ccccc2)C1=O` (centres unmarked) [Example 76, 2-(6-(3-(1H-Indol-6-yl)ureido)-4-benzyl-3-oxo-3,4-dihydro-2H-benzo[b][1,4]thiazin-2-yl)acetamide], the IC50 is 1 to 10 µM.

`O=C(Nc1ccc2c(c1)OCC(=O)N2Cc1cccc(F)c1F)Nc1ccc2cc[nH]c2c1` [Example 95, 1-(4-(2,3-difluorobenzyl)-3-oxo-3,4-dihydro-2H-benzo[b][1, 4]oxazin-7-yl)-3-(1H-indol-6-yl)urea]: the IC50 was ≤ 1 µM.

Take `NCC1COc2cc(NC(=O)Nc3ccc4cc[nH]c4c3)ccc2N1Cc1ccccc1` (centres unmarked) [Example 187, 1-(3-(aminomethyl)-4-benzyl-3,4-dihydro-2H-benzo[b][1,4]oxazin-7-yl)-3-(1H-indol-6-yl)urea]: the IC50 fell in the range of 1 to 10 µM.

`O=C1CSc2ccc(N3CCN(c4ccc5cc[nH]c5c4)CC3)cc2N1Cc1ccccc1` [Example 191, 6-(4-(1H-Indol-6-yl)piperazin-1-yl)-4-benzyl-2H-benzo[b][1,4]thiazin-3(4H)-one]: the IC50 was in the range of 1 to 10 µM.

Take `N#CCN1C(=O)COc2cc(NC(=O)Nc3ccc4cc[nH]c4c3)ccc21` [Example 157, 1-(4-(cyanomethyl)-3-oxo-3,4-dihydro-2H-benzo[b][1, 4]oxazin-7-yl)-3-(1H-indol-6-yl)urea]: the IC50 was in the range of 1 to 10 µM.

Consider `O=C(Nc1ccc2c(c1)SCCN2Cc1ccccc1)Nc1ccc2cc[nH]c2c1` [Example 63, 1-(4-benzyl-3,4-dihydro-2H-benzo[b][1, 4]thiazin-7-yl)-3-(1H-indol-6-yl)urea], for which the IC50 is > 10 µM.

Consider `O=C(Nc1ccc2c(c1)OCC(=O)N2Cc1ccc(CO)cc1)Nc1ccc2cc[nH]c2c1` [Example 153, 1-(4-(4-(hydroxymethyl)benzyl)-3-oxo-3,4-dihydro-2H-benzo[b][1, 4]oxazin-7-yl)-3-(1H-indol-6-yl)urea], for which the IC50 was > 10 µM.

As for `O=C(Nc1ccc2c(c1)N(Cc1ccccc1)C(=O)CS2)Nc1c[nH]c2ccccc12` [Example 18, 1-(4-benzyl-3-oxo-3,4-dihydro-2H-benzo[b][1, 4]thiazin-6-yl)-3-(1H-indol-3-yl)urea], the IC50 is ≤ 1 µM.

As for `O=S(=O)(Nc1ccc2c(c1)N(Cc1ccccc1)CCO2)Nc1ccc2cc[nH]c2c1` [Example 176, 4-Benzyl-N-(1H-indol-6-ylsulfamoyl)-2,3-dihydro-1,4-benzoxazin-6-amine], the IC50 fell in the range of 1 to 10 µM.

Consider `O=C(Nc1ccc2c(c1)N(Cc1ccccc1)C(=O)CS2)Nc1ccc2[nH]ccc2c1` [Example 9, 1-(4-benzyl-3-oxo-3,4-dihydro-2H-benzo[b][1, 4]thiazin-6-yl)-3-(1H-indol-5-yl)urea], for which the IC50 is 1 to 10 µM.

Take `CN1C(=O)CSc2ccc(NC(=O)Nc3ccc4cc[nH]c4c3)cc21` [Example 87, 1-(1H-indol-6-yl)-3-(4-methyl-3-oxo-3,4-dihydro-2H-benzo[b][1, 4]thiazin-6-yl)urea]: the IC50 was 1 to 10 µM.

Consider `NC(=O)C1COc2ccc(NC(=O)Nc3ccc4cc[nH]c4c3)cc2N1Cc1ccccc1` (centres unmarked) [Example 83], for which the IC50 fell in the range of 1 to 10 µM.

Regarding `O=C(Nc1ccc2c(c1)OCC(=O)N2Cc1cnccn1)Nc1ccc2cc[nH]c2c1` [Example 154, 1-(1H-indol-6-yl)-3-(3-oxo-4-(pyrazin-2-ylmethyl)-3,4-dihydro-2H-benzo[b][i, 4]oxazin-7-yl)urea], the IC50 was > 10 µM.

As for `O=C(Nc1ccc2c(c1)OCC(=O)N2c1ccccc1)Nc1ccc2cc[nH]c2c1` [Example 75, 1-(1H-Indol-6-yl)-3-(3-oxo-4-phenyl-3,4-dihydro-2H-benzo[b][1,4]oxazin-7-yl)urea], the IC50 lay within 1 to 10 µM.

Consider `O=C(Nc1ccc2c(c1)OCC(=O)N2Cc1ccccc1)Nc1c[nH]nc1-c1ccc(Cl)cc1` [Example 131, 1-(4-benzyl-3-oxo-3,4-dihydro-2H-benzo[b][1, 4]oxazin-7-yl)-3-(3-(4-chlorophenyl)-1H-pyrazol-4-yl)urea], for which the IC50 was > 10 µM.
